Our source for the T/C values is PubChem BioAssay AID248 (DTP/NCI, 2004).

Several values for one entry are separate records, joined by “and”; a condition that tells them apart may be missing. Identical values can stand only once. Toxic doses and inconclusive results are not listed.

This assay deals with L1210 leukemia ip in BDF1 mice, survival T/C. Kind of assay: NCI In Vivo Anticancer Drug Screen. Data for tumor model L1210 Leukemia (intraperitoneal) in B6D2F1 (BDF1) mice. The conditions noted are these: endpoint: mean survival time, higher = longer survival. In outline:
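Each compound was tested against a transplantable tumor grown in mice. The endpoint was survival, with treated animals benchmarked against vehicle controls as a simple ratio.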

Setting [1] is: dose: 50.0 mg/kg/injection, schedule: Q01DX009 (ip), vehicle: saline.
Setting [2] is: dose: 100.0 mg/kg/injection, schedule: Q04DX002 (ip), vehicle: Klucel (hydroxypropylcellulose) (HPC).
The mark [3] stands for this setting: dose: 200.0 mg/kg/injection, schedule: Q04DX002 (ip), vehicle: Klucel (hydroxypropylcellulose) (HPC).
[4] abbreviates: dose: 400.0 mg/kg/injection, schedule: Q04DX002 (ip), vehicle: Klucel (hydroxypropylcellulose) (HPC).
[5] abbreviates: dose: 100.0 mg/kg/injection, schedule: Q01DX001 (ip), vehicle: carboxymethylcellulose (CMC).
Where [6] appears, read: dose: 200.0 mg/kg/injection, schedule: Q01DX001 (ip), vehicle: carboxymethylcellulose (CMC).
Setting [7] is: dose: 400.0 mg/kg/injection, schedule: Q01DX001 (ip), vehicle: carboxymethylcellulose (CMC).
Setting [8] is: dose: 100.0 mg/kg/injection, schedule: Q01DX001 (ip), vehicle: saline.
[9] abbreviates: dose: 200.0 mg/kg/injection, schedule: Q01DX001 (ip), vehicle: saline.
Where [10] appears, read: dose: 400.0 mg/kg/injection, schedule: Q01DX001 (ip), vehicle: saline.
Setting [11] is: dose: 100.0 mg/kg/injection, schedule: Q04DX003 (ip), vehicle: saline with Tween-80.
[12] abbreviates: dose: 200.0 mg/kg/injection, schedule: Q04DX003 (ip), vehicle: saline with Tween-80.
Where [13] appears, read: dose: 400.0 mg/kg/injection, schedule: Q04DX003 (ip), vehicle: saline with Tween-80.
[14] abbreviates: dose: 100.0 mg/kg/injection, schedule: Q01DX009 (ip), vehicle: saline with Tween-80.

In the case of `NC(CSS(=O)(=O)O)=NCc1ccncc1`, the T/C runs as follows: (dose: 25.0 mg/kg/injection, schedule: Q04DX002 (ip), vehicle: saline) 95 % of control; (dose: 50.0 mg/kg/injection, schedule: Q04DX002 (ip), vehicle: saline) 103 % of control; (dose: 100.0 mg/kg/injection, schedule: Q04DX002 (ip), vehicle: saline) 123 % of control.
As for `CCOC(=O)N=C=O`, the T/C is 103 % of control (dose: 100.0 mg/kg/injection, schedule: Q01DX009 (ip), vehicle: water); 95 % of control (dose: 100.0 mg/kg/injection, schedule: Q04DX003 (ip), vehicle: water); 100 % of control (dose: 200.0 mg/kg/injection, schedule: Q01DX009 (ip), vehicle: water); 101 % of control (dose: 200.0 mg/kg/injection, schedule: Q04DX003 (ip), vehicle: water); 101 % of control (dose: 400.0 mg/kg/injection, schedule: Q04DX003 (ip), vehicle: water).
For the compound `CC(C)=CCC(=O)OC(CC=C(C)C)(c1ccccc1)C(C)CN(C)C` (centres undefined), the T/C is 100 % of control (dose: 25.0 mg/kg/injection, schedule: Q01DX009 (ip), vehicle: saline); 90 % of control under setting [1]; 89 % of control (dose: 100.0 mg/kg/injection, schedule: Q01DX009 (ip), vehicle: saline).
On to `O=c1scc(-c2ccc(-c3ccccc3)cc2)s1`, for which the T/C reads like this: under setting [2], 109 % of control; under setting [3], 95 % of control; under setting [4], 109 % of control.
With `CCCCCCCCP(=O)(CCCCCCCC)CCCCCCCC`, the T/C reads like this: (dose: 50.0 mg/kg/injection, schedule: Q01DX001 (ip), vehicle: carboxymethylcellulose (CMC)) 95 % of control; under setting [5], 95 % of control; under setting [6], 95 % of control; under setting [7], 101 % of control.
Take `OCC1OC(c2ccccc2)OC1C1OC(c2ccccc2)OC1CO` (centres undefined): the T/C is, setting by setting: under setting [8], 98 % of control; under setting [9], 96 % of control; under setting [10], 98 % of control.
Regarding `O=C(O)c1ccccc1OCc1cc(=O)[nH]c(=O)[nH]1`, the T/C by setting is: (dose: 100.0 mg/kg/injection, schedule: Q04DX003 (ip), vehicle: saline) 95 % of control; (dose: 200.0 mg/kg/injection, schedule: Q04DX003 (ip), vehicle: saline) 95 % of control; (dose: 400.0 mg/kg/injection, schedule: Q04DX003 (ip), vehicle: saline) 98 % of control.
For `CN(C)c1ccc(SSc2ccc(N(C)C)cc2)cc1`, the T/C reads like this: under setting [8], 104 % of control; under setting [2], 98 % of control; under setting [9], 93 % of control; under setting [3], 102 % of control; under setting [10], 98 % of control; under setting [4], 91 % of control.
Take `O=c1[nH]c2c(Br)c([N+](=O)[O-])c(Br)cc2c2ccc(Br)cc12`: the T/C reads like this: under setting [5], 100 % of control; under setting [6], 98 % of control; under setting [7], 91 % of control.
`Nc1ncnc2c1ncn2C(C=O)OC(C=O)CO` (centres undefined): the T/C reads like this: (dose: 4.37 mg/kg/injection, schedule: Q01DX009 (ip), vehicle: water) 123 % of control; (dose: 4.37 mg/kg/injection, schedule: Q01DX Z (ip), vehicle: water) 123 % of control; (dose: 8.75 mg/kg/injection, schedule: Q01DX Z (ip), vehicle: water) 157 % of control; (dose: 8.8 mg/kg/injection, schedule: Q01DX Z (ip), vehicle: carboxymethylcellulose (CMC)) 115 % of control; (dose: 13.3 mg/kg/injection, schedule: Q01DX Z (ip), vehicle: carboxymethylcellulose (CMC)) 121 % of control; (dose: 17.5 mg/kg/injection, schedule: Q01DX009 (ip), vehicle: water) 172 % of control. Further, the T/C is 172 % of control (dose: 17.5 mg/kg/injection, schedule: Q01DX Z (ip), vehicle: water); 116 % of control (dose: 30.0 mg/kg/injection, schedule: Q01DX Z (ip), vehicle: carboxymethylcellulose (CMC)); 92 % of control (dose: 35.0 mg/kg/injection, schedule: Q01DX Z (ip), vehicle: water); 115 % of control (dose: 42.0 mg/kg/injection, schedule: Q01DX Z (oral), vehicle: carboxymethylcellulose (CMC)); 100 % of control and 101 % of control (dose: 45.0 mg/kg/injection, schedule: Q01DX Z (ip), vehicle: carboxymethylcellulose (CMC)); 107 % of control (dose: 64.0 mg/kg/injection, schedule: Q01DX Z (oral), vehicle: carboxymethylcellulose (CMC)). Moreover, the T/C is, setting by setting: (dose: 68.0 mg/kg/injection, schedule: Q01DX Z (ip), vehicle: carboxymethylcellulose (CMC)) 105 % of control and 121 % of control; (dose: 79.0 mg/kg/injection, schedule: Q01DX009 (oral), vehicle: saline) 109 % of control; (dose: 96.0 mg/kg/injection, schedule: Q01DX Z (oral), vehicle: carboxymethylcellulose (CMC)) 109 % of control; (dose: 119.0 mg/kg/injection, schedule: Q01DX009 (oral), vehicle: saline) 109 % of control; (dose: 144.0 mg/kg/injection, schedule: Q01DX Z (oral), vehicle: carboxymethylcellulose (CMC)) 96 % of control; (dose: 178.0 mg/kg/injection, schedule: Q01DX009 (oral), vehicle: saline) 112 % of control.
Regarding `CCOC(=O)C1=CC=CC1=O`, the T/C by setting is: under setting [11], 102 % of control; under setting [12], 95 % of control; under setting [13], 91 % of control.
Take `NC(=O)c1ccccc1C(Cl)(Cl)Cl`: the T/C (dose: 50.0 mg/kg/injection, schedule: Q01DX009 (ip), vehicle: saline with Tween-80) was 88 % of control; the T/C under setting [14] was 89 % of control; the T/C under setting [11] is 104 % of control; the T/C under setting [12] is 96 % of control.
Consider `Cc1ccc(S(=O)(=O)Nc2ccc3nc(C)oc3c2)cc1`, for which the T/C under setting [14] is 100 % of control; the T/C under setting [11] was 96 % of control; the T/C (dose: 200.0 mg/kg/injection, schedule: Q01DX009 (ip), vehicle: saline with Tween-80) was 102 % of control; the T/C under setting [12] was 91 % of control; the T/C (dose: 400.0 mg/kg/injection, schedule: Q01DX009 (ip), vehicle: saline with Tween-80) was 93 % of control; the T/C under setting [13] is 89 % of control.
Take `[Cl][Hg][c]1ccc2ccccc2c1`: the T/C runs as follows: (dose: 6.25 mg/kg/injection, schedule: Q01DX005 (ip), vehicle: saline with Tween-80) 104 % of control; (dose: 12.5 mg/kg/injection, schedule: Q01DX005 (ip), vehicle: saline with Tween-80) 97 % of control; (dose: 12.5 mg/kg/injection, schedule: Q01DX009 (ip), vehicle: saline with Tween-80) 92 % of control; (dose: 25.0 mg/kg/injection, schedule: Q01DX005 (ip), vehicle: saline with Tween-80) 104 % of control.
In the case of `CCCS(=O)(=O)N(CC(=O)O)Cc1ccccc1`, the T/C (dose: 50.0 mg/kg/injection, schedule: Q01DX009 (ip), vehicle: other) is 110 % of control; the T/C (dose: 100.0 mg/kg/injection, schedule: Q01DX009 (ip), vehicle: other) was 106 % of control and 107 % of control; the T/C under setting [11] was 101 % of control; the T/C (dose: 200.0 mg/kg/injection, schedule: Q01DX009 (ip), vehicle: other) is 112 % of control and 115 % of control; the T/C under setting [12] was 104 % of control; the T/C (dose: 400.0 mg/kg/injection, schedule: Q01DX009 (ip), vehicle: other) was 104 % of control. Also, the T/C under setting [13] is 100 % of control.
Consider `COC(=O)CC(=O)c1ccc(C)cc1`, for which the T/C is, setting by setting: (dose: 100.0 mg/kg/injection, schedule: Q01DX009 (ip), vehicle: Klucel (hydroxypropylcellulose) (HPC)) 101 % of control; (dose: 100.0 mg/kg/injection, schedule: Q04DX003 (ip), vehicle: Klucel (hydroxypropylcellulose) (HPC)) 108 % of control; (dose: 200.0 mg/kg/injection, schedule: Q01DX009 (ip), vehicle: Klucel (hydroxypropylcellulose) (HPC)) 95 % of control; (dose: 200.0 mg/kg/injection, schedule: Q04DX003 (ip), vehicle: Klucel (hydroxypropylcellulose) (HPC)) 111 % of control; (dose: 400.0 mg/kg/injection, schedule: Q01DX009 (ip), vehicle: Klucel (hydroxypropylcellulose) (HPC)) 104 % of control; (dose: 400.0 mg/kg/injection, schedule: Q04DX003 (ip), vehicle: Klucel (hydroxypropylcellulose) (HPC)) 95 % of control.
In the case of `CNNC(=O)Cc1ccc(OC)cc1`, the T/C is, setting by setting: under setting [1], 100 % of control; under setting [8], 100 % of control; under setting [9], 113 % of control.
